Several values for one entry are separate records, joined by “and”; a condition that tells them apart may be missing. Equal entries are not always repeated. Where two headings read alike, the source gives them in different places.

Series [1] has as its system HIV. As to the kind of experiment: Antiviral activity against HIV (method of Mitsuya et al.). The conditions noted are these: Human immunodeficiency virus 1; for minimal effective concentration: no % protection printed, read-out: Concentration at which found to have activity against HIV; for IC50: HIV. It is filed as cell-based. Here is the method:
The compounds of Examples 1-6 were tested for activity against HIV generally in accordance with the method described by Mitsuya et al, Proc. Nat. Acad. Sci, USA Vol 82, pp 7096-7100, October 1985 and found to have activity against HIV at the following concentrations: […]

Series [2] can be described thus: Urinary and fecal excretion after oral dosing of rats. It is filed as in vivo, male Sprague Dawley rats. The note with it: rat. On the procedure: (§1) Using an intragastric needle, sexually mature, male Sprague Dawley rats were given single 25 mg/kg oral doses of DDC or equimolar doses of DDC Congeners.
For urinary and fecal excretion studies, each compound was administered to two animals, which were housed separately in metabolic cages and urine and feces were separated and collected during the 0-24, 24-48 and 48-72 hour intervals post dose. To prevent bacterial growth, sodium azide was placed in the urine collection vessel so that the final concentration, after 24 hours of urine collection, would be about 0.02%. Feces were weighed, homogenized in 9 volumes (9 ml/g) deionized water and centrifuged (12,000×g, 4° C., 30 min). Prior to high-performance liquid chromatographic (HPLC) analysis for drug and metabolite content, samples of the fecal homogenate supernatants and urines were filtered (0.22 μm filters).
(§2) A dual-pump HPLC system was used to analyse samples of urine, feces, plasma and brain for DDC and its congeners and their metabolites. The solvent for pump A was 25 mM phosphoric acid, buffered to pH 7.2 with ammonium hydroxide. The solvent for pump B was 60% acetonitrile in solvent A. Samples were injected onto an Adsorbospher phenyl column (4.6×250 mm, 5 micron spherical packing) and eluted at a flow rate of 1 ml/minute using linear increases in solvent B from 0 to 15% over 15 minutes and from 15 to 100% over 21 minutes, with 5 minute purge (100% B) and 15 minute restore (0% B) period between injections. The absorbance of the column effluent was monitored at 273 and 254 nm. Concentrations of compounds were determined by comparing appropriate peak areas to standard curves obtained from analysis of aqueous solutions of authentic standards. Compounds were identified by comparing retention times and ratios of peak areas at 273 and 254 nm to those of authentic standards.

Series [3] can be described thus: Concomitant plasma and brain levels of DDC and its congeners after oral dosing of rats. It is filed as in vivo, male Sprague Dawley rats. The note with it: rat; for Amounts of analogues still containing the N4-amide in plasma and brain / Plasma and brain levels of DDC relative to DDC dosing: oral dose equivalent to 25 mg DDC, 0.5 and 2 hours; for Levels of DDC in plasma and brain relative to a dose of DDC, 0.5 hour: 0.5 hour post dose; for Plasma and brain concentrations of DDC relative to a dose of DDC, 2 hours: 2 hours post dose. On the procedure: as §1
For concomitant plasma and brain level studies, each compound was administered to two animals. Animals were sacrificed by decapitation, one of each pair at 30 minutes and the other at 2 hours post dose. Blood was collected into heparinized cups and plasma was prepared. Samples of each plasma were ultrafiltered (Amicon Centrifree Micropartition Systems) prior to HPLC analysis. Brains were removed, weighed, homogenized in 2 volumes (2 ml/g) deionized water and centrifuged (12,000×g 4° C., 30 min). The resulting supernatants were filtered (0.22 μm filters) prior to HPLC analysis.
as §2

The subject of series [4] is HIV. The conditions noted are these: known from EP 0216511; cited from earlier work.
Setting [5] is: in vivo, po, 25 mg/kg, 1440 min.

Regarding `Nc1ccn([C@H]2CC[C@@H](CO)O2)c(=O)n1` [DDC, 2',3'-Dideoxycytidine, reference compound], in the series on HIV [1] (16 μM, read-out: % Protection), the inhibition at 16 µM came out at 99%. The dose excreted at 24 h in series [2] (feces, po, 25 mg/kg, rat 1, oral 25 mg/kg, compound detected: DDC, read-out: Percent Dose Excreted as DDC, 0-24 hr Feces) was 12%. The dose excreted in series [2] (feces, po, 25 mg/kg, two rats, oral 25 mg/kg, feces, DDC, read-out: Average fecal excretion of parent compound) worked out at 28.1%. Besides, in series [2] (in vivo, po, 25 mg/kg), the “Average fecal excretion of 2',3'-dideoxyuridine” value is recorded as 1.9 % of the dose; the “Compound Detected, 24-72 hr Feces” value is given as “none”; the Gastrointestinal absorption entry is “limited gastrointestinal absorption”. For the same compound, in series [2] (setting [5]), the “Percent Dose Excreted as ddU, 0-24 hr Feces” value stood at 1.1 Percent Dose and the “Percent Dose Excreted as ddU, 0-24 hr Urine (second entry so headed)” value is 2.6 Percent Dose. Further, the “Percent Dose Excreted as DDC, 0-24 hr Urine” value in series [2] (single oral dose 25 mg/kg DDC or equimolar, individual rats, compound detected: DDC, 25 mg/kg, 1440 min) stood at 31.6 Percent Dose. The “Percent Dose Excreted as DDC, 24-72 hr Urine” value in series [2] (single oral dose 25 mg/kg DDC or equimolar, individual rats, compound detected: DDC, 25 mg/kg, 4320 min) was 6.23 Percent Dose and 1.5 Percent Dose. In series [2] (urine, po, 25 mg/kg, rat 2, oral 25 mg/kg DDC, compound detected: DDC, read-out: Percent Dose Excreted as DDC, 0-24 hr Urine (second entry so headed)), the dose excreted at 24 h amounted to 32.2%. For the same compound, the dose excreted at 24 h in series [2] (urine, po, 25 mg/kg, single oral dose 25 mg/kg DDC or equimolar, individual rats, compound detected: DDC, read-out: Percent Dose Excreted as DDC, 0-24 hr Urine) is 46.6%. The dose excreted at 72 h in series [2] (urine, po, 25 mg/kg, two rats, oral 25 mg/kg DDC or equimolar, urine 72 hours, read-out: Average urinary excretion as DDC) amounted to 43%. Also, the “Absorption and hydrolysis (plasma level data)” value in series [3] (oral) is reported as “absorption of DDC although incomplete, may be more prolonged”. Besides, the Anti-HIV activity entry with HIV [4] was “potent anti-HIV activity”.
On to `CCC(=O)Nc1ccn([C@H]2CC[C@@H](COC(=O)CC)O2)c(=O)n1` [Example 1, 2',3'-Dideoxy-N^4, 5'-O-dipropionylcytidine], for which, in the series with HIV [1], the minimal effective concentration was found to be 25 µM. In series [3], the “Amounts of analogues still containing the N4-amide in plasma and brain” value is on record as “Much higher amounts”; the “Plasma and brain levels of DDC relative to DDC dosing” value is “lower than what was observed after dosing with DDC”.
In turn, `CCC(=O)Nc1ccn([C@H]2CC[C@@H](CO)O2)c(=O)n1` [Example 2, 2',3'-Dideoxy-N^4-propionylcytidine] returned an IC50 with HIV [1] of 36 µM.
`CCC(=O)OC[C@@H]1CC[C@H](n2ccc(N)nc2=O)O1` [Example 3, 2',3'-Dideoxy-5'-O-propionylcytidine] had an IC50 with HIV [1] of 1.6 µM. In series [3] (oral), the “Levels of DDC in plasma and brain relative to a dose of DDC, 0.5 hour” value was “higher levels of DDC in the plasma and brain”; the “Plasma and brain concentrations of DDC relative to a dose of DDC, 2 hours” value was “lower than those observed after a dose of DDC”.
In the case of `CC(C)(C)C(=O)Nc1ccn([C@H]2CC[C@@H](COC(=O)C(C)(C)C)O2)c(=O)n1` [Example 4, 2',3'-dideoxy-N^4,5'-O-dipivaloylcytidine], the minimal effective concentration with HIV [1] stood at 25 µM. For the same compound, in series [3], the “Amounts of analogues still containing the N4-amide in plasma and brain” value was “Much higher amounts”; the “Plasma and brain levels of DDC relative to DDC dosing” value is given as “lower than what was observed after dosing with DDC”.
In the case of `CC(C)(C)C(=O)Nc1ccn([C@H]2CC[C@@H](CO)O2)c(=O)n1` [Example 5, 2',3'-dideoxy-N^4-pivaloylcytidine], the inhibition at 100 µM in the series with HIV [1] (100 μM, read-out: % Protection) was determined as 42%. In series [3], the “Amounts of analogues still containing the N4-amide in plasma and brain” value is on record as “Much higher amounts”; the “Plasma and brain levels of DDC relative to DDC dosing” value is listed as “lower than what was observed after dosing with DDC”.
Regarding `CC(C)(C)C(=O)OC[C@@H]1CC[C@H](n2ccc(N)nc2=O)O1` [Example 6, 2',3'-Dideoxy-5'-O-pivaloylcytidine], the inhibition at 6.4 µM in the series on HIV [1] (6.4 μM, read-out: % Protection) stood at 88%. Also, in series [2] (in vivo, po), the “Increase of oral bioavailability of DDC” value is recorded as 2.5 fold. Further, in series [3] (oral), the “Levels of DDC in plasma and brain relative to a dose of DDC, 0.5 hour” value is “higher levels of DDC in the plasma and brain”; the “Plasma and brain concentrations of DDC relative to a dose of DDC, 2 hours” value is reported as “lower than those observed after a dose of DDC”.

Broadly, the IC50 is the concentration that inhibits the measured activity by half. Read a low IC50 as higher potency.

Values taken from patent US5071983A, “Therapeutic nucleosides” (priority 1989, dated 1991).
